According to article PMC7357011, “Adenosine-5′-Phosphosulfate- and Sulfite Reductases Activities of Sulfate-Reducing Bacteria from Various Environments” (Biomolecules, 2020):

Assays:
[1] = test system: T1, APS reductase (Desulfotomaculum sp. TC3); assay: AMP-dependent ferricyanide reduction at […] nm, Lineweaver-Burk; type: cell-based; conditions: reverse direction, EDTA, Tris-HCl pH 7.5, 27 °C, varied substrate sulfite (methods)
T1 construct: gene aprA; native enzyme in crude cell-free extract, not purified; with Adenylylsulfate reductase subunit beta

[2] = test system: T2, APS reductase (Desulfomicrobium sp. TC4); assay: as above; type: cell-based; conditions: reverse direction, EDTA, Tris-HCl pH 7.5, 27 °C, varied substrate sulfite (methods)
T2 construct: gene aprA; native enzyme in crude cell-free extract, not purified; with Adenylylsulfate reductase subunit beta

[3] = test system: T3, sulfite reductase (D. vulgaris DSM644); assay: NADH oxidation at […] nm, Lineweaver-Burk; type: biochemical, Nitratidesulfovibrio vulgaris; conditions: 0.2 mmol/L NADH, EDTA; Tris-HCl pH 7.5 (started with HCl); 27 °C
T3 construct: gene dsrA; native enzyme in crude cell-free extract, not purified; NADH-oxidation read-out

[4] = test system: T4, sulfite reductase (Desulfovibrio sp. 10); assay: NADH oxidation at […] nm, Lineweaver-Burk; type: biochemical; conditions: 0.2 mmol/L NADH, EDTA; Tris-HCl pH 7.5 (started with HCl); 27 °C
T4 construct: gene dsrA; native enzyme in crude cell-free extract, not purified; NADH-oxidation read-out

[5] = molecular target: T5, sulfite reductase (D. orale Rod-9) (Desulfomicrobium orale, UniProt A0A109W607+A0A109W618); assay: NADH oxidation at […] nm, Lineweaver-Burk; type: cell-based; conditions: 0.2 mmol/L NADH, EDTA; Tris-HCl pH 8.0 (started with HCl); 35 °C
T5 construct: gene AXF15_07380; native enzyme in crude cell-free extract, not purified; NADH-oxidation read-out
T5 sequence (A0A109W618 1-437): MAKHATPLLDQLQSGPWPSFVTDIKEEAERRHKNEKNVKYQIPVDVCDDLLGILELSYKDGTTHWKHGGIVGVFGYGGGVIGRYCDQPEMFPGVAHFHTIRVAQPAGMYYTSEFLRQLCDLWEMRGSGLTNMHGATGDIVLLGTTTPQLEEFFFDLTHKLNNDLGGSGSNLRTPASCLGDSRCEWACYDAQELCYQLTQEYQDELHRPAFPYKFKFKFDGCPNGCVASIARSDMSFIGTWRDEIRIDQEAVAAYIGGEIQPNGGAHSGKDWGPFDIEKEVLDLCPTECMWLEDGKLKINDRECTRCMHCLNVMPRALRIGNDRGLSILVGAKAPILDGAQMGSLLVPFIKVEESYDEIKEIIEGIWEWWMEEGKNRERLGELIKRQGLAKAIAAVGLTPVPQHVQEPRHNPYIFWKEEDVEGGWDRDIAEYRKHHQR
T5 sequence (A0A109W607 1-386): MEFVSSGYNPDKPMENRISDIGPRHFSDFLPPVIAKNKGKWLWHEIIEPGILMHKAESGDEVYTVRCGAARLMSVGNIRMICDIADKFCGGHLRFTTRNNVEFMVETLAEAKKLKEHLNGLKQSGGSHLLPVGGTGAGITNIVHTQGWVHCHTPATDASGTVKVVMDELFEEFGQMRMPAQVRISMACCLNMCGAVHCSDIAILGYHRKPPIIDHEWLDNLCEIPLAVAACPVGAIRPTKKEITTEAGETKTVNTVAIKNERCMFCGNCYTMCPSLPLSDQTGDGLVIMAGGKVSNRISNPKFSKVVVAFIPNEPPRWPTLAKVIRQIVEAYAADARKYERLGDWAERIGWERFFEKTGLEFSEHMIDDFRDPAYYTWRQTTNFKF

[6] = test system: T6, sulfite reductase (Desulfotomaculum sp. TC3); assay: NADH oxidation at […] nm, Lineweaver-Burk; type: biochemical; conditions: 0.2 mmol/L NADH, EDTA; Tris-HCl pH 7.5 (started with HCl); 27 °C
T6 construct: gene dsrA; native enzyme in crude cell-free extract, not purified; NADH-oxidation read-out

[7] = test system: T7, sulfite reductase (D. desulfuricans DSM642); assay: NADH oxidation at […] nm, Lineweaver-Burk; type: cell-based, Desulfovibrio desulfuricans; conditions: 0.2 mmol/L NADH, EDTA; Tris-HCl pH 7.5 (started with HCl); 27 °C
T7 construct: gene dsrA; native enzyme in crude cell-free extract, not purified; NADH-oxidation read-out

[8] = test system: T8, APS reductase (Desulfovibrio sp. TC2); assay: AMP-dependent ferricyanide reduction at […] nm, Lineweaver-Burk; type: cell-based; conditions: reverse direction, EDTA, Tris-HCl pH 7.5, 27 °C, varied substrate sulfite (methods)
T8 construct: gene aprA; native enzyme in crude cell-free extract, not purified; with Adenylylsulfate reductase subunit beta

[9] = molecular target: T9, APS reductase (D. desulfuricans DSM642) (Desulfovibrio desulfuricans, UniProt Q9L767); assay: as above; type: cell-based; conditions: reverse direction, EDTA, Tris-HCl pH 7.5, 27 °C, varied substrate sulfite (methods)
T9 construct: gene aprB; native enzyme in crude cell-free extract, not purified; with Adenylylsulfate reductase subunit beta
T9 sequence (Q9L767 1-662): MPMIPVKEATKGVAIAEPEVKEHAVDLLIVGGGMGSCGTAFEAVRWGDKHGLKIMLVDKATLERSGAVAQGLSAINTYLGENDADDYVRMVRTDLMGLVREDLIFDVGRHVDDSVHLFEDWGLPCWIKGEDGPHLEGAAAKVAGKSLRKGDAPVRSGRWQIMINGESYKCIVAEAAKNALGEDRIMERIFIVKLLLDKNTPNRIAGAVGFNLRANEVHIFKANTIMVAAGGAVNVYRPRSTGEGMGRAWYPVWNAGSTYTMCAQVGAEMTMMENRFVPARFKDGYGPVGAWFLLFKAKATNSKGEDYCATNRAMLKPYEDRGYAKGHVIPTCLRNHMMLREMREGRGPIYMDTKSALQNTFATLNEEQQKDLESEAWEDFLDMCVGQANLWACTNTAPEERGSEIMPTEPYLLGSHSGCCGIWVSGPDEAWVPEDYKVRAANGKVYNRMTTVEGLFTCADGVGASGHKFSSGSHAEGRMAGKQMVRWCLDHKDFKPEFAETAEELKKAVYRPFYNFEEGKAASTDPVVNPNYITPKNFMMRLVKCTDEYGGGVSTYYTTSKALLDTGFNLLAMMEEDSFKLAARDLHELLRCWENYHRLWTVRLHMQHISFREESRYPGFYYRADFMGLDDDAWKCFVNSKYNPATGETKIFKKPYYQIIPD
T9 sequence (Q9L768 1-162 partner): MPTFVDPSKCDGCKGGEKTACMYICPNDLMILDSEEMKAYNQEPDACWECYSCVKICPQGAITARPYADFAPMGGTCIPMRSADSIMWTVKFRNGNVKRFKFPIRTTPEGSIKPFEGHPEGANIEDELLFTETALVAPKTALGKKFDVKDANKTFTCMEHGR

[10] = test system: T10, sulfite reductase (Desulfomicrobium sp. TC4); assay: NADH oxidation at […] nm, Lineweaver-Burk; type: cell-based; conditions: 0.2 mmol/L NADH, EDTA; Tris-HCl pH 7.5 (started with HCl); 27 °C
T10 construct: gene dsrA; native enzyme in crude cell-free extract, not purified; NADH-oxidation read-out

[11] = test system: T11, sulfite reductase (D. piger Vib-7); assay: NADH oxidation at […] nm, Lineweaver-Burk; type: cell-based, Desulfovibrio piger; conditions: 0.2 mmol/L NADH, EDTA; Tris-HCl pH 8.0 (started with HCl); 35 °C
T11 construct: gene dsrA; native enzyme in crude cell-free extract, not purified; NADH-oxidation read-out

[12] = test system: T12, sulfite reductase (Desulfovibrio sp. TC2); assay: NADH oxidation at […] nm, Lineweaver-Burk; type: cell-based; conditions: 0.2 mmol/L NADH, EDTA; Tris-HCl pH 7.5 (started with HCl); 27 °C
T12 construct: gene dsrA; native enzyme in crude cell-free extract, not purified; NADH-oxidation read-out

sulfite
Km [1]: 1.49 mM | Km [2]: 1.1 mM | Km [3]: 31.7 mM | Km [4]: 46.7 mM | Km [5]: 3.86 mM | Km [6]: 46.2 mM | Km [7]: 9.97 mM | Km [8]: 1.59 mM | Km [9]: 2.12 mM | Km [10]: 19.4 mM | Km [11]: 3.53 mM | Km [12]: 26.1 mM
